# Measurements as given in US8906852B2 (MethylGene Inc., priority 2010, dated 2014).
# Target: T1, VEGFR/KDR (Homo sapiens, UniProt P35968)
# T1 construct: made in house; host or cells: Sf9 cells (Spodoptera frugiperda), baculovirus
# Assay: VEGFR/KDR kinase inhibition, DELFIA assay
# Assay type: biochemical
# Details: ATP 0.6 uM (2x Km), enzyme 5 nM
# Procedure, shortened: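 Enzyme (5 nM) pre-incubated 4 min on ice with inhibitor and Mg-ATP (0.6 uM, 2× Km), then reacted 10-30 min at 30° C on immobilized poly(Glu4,Tyr). EDTA-quenched phosphotyrosine detected with Europium-labeled antibody by time-resolved fluorescence; IC50 from concentration series.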
# T1 sequence (P35968 806-1356): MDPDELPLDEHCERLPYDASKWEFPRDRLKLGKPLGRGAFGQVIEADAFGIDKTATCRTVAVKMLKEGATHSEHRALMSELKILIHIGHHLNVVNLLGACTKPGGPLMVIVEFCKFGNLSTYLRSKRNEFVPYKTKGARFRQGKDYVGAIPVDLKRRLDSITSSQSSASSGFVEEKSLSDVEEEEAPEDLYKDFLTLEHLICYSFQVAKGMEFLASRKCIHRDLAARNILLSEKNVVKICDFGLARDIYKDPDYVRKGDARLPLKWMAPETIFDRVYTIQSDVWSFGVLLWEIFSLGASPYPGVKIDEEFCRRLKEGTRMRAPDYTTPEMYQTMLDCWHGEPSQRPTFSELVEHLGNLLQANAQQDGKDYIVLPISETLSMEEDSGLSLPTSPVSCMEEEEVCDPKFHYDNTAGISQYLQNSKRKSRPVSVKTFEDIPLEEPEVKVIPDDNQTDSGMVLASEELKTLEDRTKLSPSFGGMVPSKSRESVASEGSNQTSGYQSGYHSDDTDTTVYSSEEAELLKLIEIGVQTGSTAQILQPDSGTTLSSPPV
row,Compound,IC50
1,"CCNC(=O)N(CCOC)Cc1cnc(-c2cc3nccc(Oc4ccc(NC(=O)NC5CC5)cc4F)c3s2)n1C [Compound 161-B, 1-((2-(7-(4-cyclopropylaminocarbonylamino-2-fluorophenoxy)thieno[3,2-b]pyridin-2-yl)-1-methyl-1H-imidazol-5-yl)methyl)-3-ethyl-1-(2-methoxyethyl)urea]",< 50 nM
2,"O=C(Nc1ccc(Oc2ccnc3cc(-c4cnn(CCN5CCCC5=O)c4)sc23)c(F)c1)NC1CC1 [Compound 166, 1-cyclopropyl-3-(3-fluoro-4-(2-(1-(2-(2-oxopyrrolidin-1-yl)ethyl)-1H-pyrazol-4-yl)thieno[3,2-b]pyridin-7-yloxy)phenyl)urea]",< 50 nM
3,"O=C(O)CCCNCc1ccc(-c2cc3nccc(Oc4ccc(NC(=O)NC5CC5)c(F)c4F)c3s2)nc1 [Compound 168, 4-((6-(7-(4-(3-cyclopropylureido)-2,3-difluorophenoxy)thieno[3,2-b]pyridin-2-yl)pyridin-3-yl)methylamino)butanoic acid]",< 50 nM
4,"O=C(Nc1ccc(Oc2ccnc3cc(-c4ccc(CN5CCCC5=O)cn4)sc23)c(F)c1F)NC1CC1 [Compound 169, 1-cyclopropyl-3-(2,3-difluoro-4-(2-(5-((2-oxopyrrolidin-1-yl)methyl)pyridin-2-yl)thieno[3,2-b]pyridin-7-yloxy)phenyl)urea]",< 50 nM
5,"NC(CCCCNCc1ccc(-c2cc3nccc(Oc4ccc(NC(=O)NC5CC5)c(F)c4F)c3s2)nc1)C(=O)O (stereo not drawn) [Compound 170, 2-amino-6-((6-(7-(4-(3-cyclopropylureido)-2,3-difluorophenoxy)thieno[3,2-b]pyridin-2-1)pyridin-3-yl)methylamino)hexanoic acid]",< 50 nM
6,"COCCOCCOCCOCCNCc1ccc(-c2cc3nccc(Oc4ccc(NC(=O)NC5CC5)c(F)c4F)c3s2)nc1 [Compound 171, 1-(4-(2-(5-5,8,11,14-tetraoxa-2-azapentadecylpyridin-2-yl)thieno[3,2-b]pyridin-7-yloxy)-2,3-diiluorophenyl)-3-cyclopropylurea]",< 50 nM
7,"O=C(O)CCN1CCN(Cc2ccc(-c3cc4nccc(Oc5ccc(NC(=O)NC6CC6)c(F)c5F)c4s3)nc2)CC1 [Compound 172, 3-(4-((6-(7-(4-(3-cyclopropylureido)-2,3-difluorophenoxy)thieno-[3,2-b]pyridin-2-yl)pyridin-3-yl)methyl)piperazin-1-yl)propanoic acid]",< 50 nM
8,"O=C(Nc1ccc(Oc2ccnc3cc(-c4ccc(CN5CCC[C@H]5C(=O)O)cn4)sc23)c(F)c1)NC1CC1 [Compound 173, (S)-1-((6-(7-(4-(3-cyclopropylureido)-2-fluorophenoxy)thieno[3,2-b]pyridin-2-yl)pyridin-3-yl)methyl)pyrrolidine-2-carboxylic acid]",< 50 nM
9,"O=C(Nc1ccc(Oc2ccnc3cc(-c4ccc(CCN5CCOCC5)cn4)sc23)c(F)c1)NC1CC1 [Compound 178, 1-cyclopropyl-3-(3-fluoro-4-(2-(5-(2-morpholinoethyl)pyridin-2-yl)thieno[3,2-b]pyridin-7-yloxy)phenyl)urea]",< 50 nM
10,"COCCOCCOCCOCCN(C)Cc1ccc(-c2cc3nccc(Oc4ccc(NC(=O)NC5CC5)cc4F)c3s2)nc1 [Compound 180, 1-cyclopropyl-3-(3-fluoro-4-(2-(5-(2-methyl-5,8,11,14-tetraoxa-2-azapentadecyl)pyridin-2-yl)thieno[3,2-b]pyridin-7-yloxy)phenyl)urea]",< 50 nM
11,"COCCNCCc1ccc(-c2cc3nccc(Oc4ccc(NC(=O)Nc5cc(C)on5)cc4F)c3s2)nc1 [Compound 183, 1-(3-fluoro-4-(2-(5-(2-(2-methoxyethylamino)ethyl)pyridin-2-yl)thieno[3,2-b]pyridin-7-yloxy)phenyl)-3-(5-methylisoxazol-3-yl)urea]",< 50 nM
12,"COCCNCCc1ccc(-c2cc3nccc(Oc4ccc(NC(=O)C5(C(=O)Nc6ccc(F)cc6)CC5)cc4F)c3s2)nc1 [Compound 185, N-(3-fluoro-4-(2-(5-(2-(2-methoxyethylamino)ethyl)pyridin-2-yl)thieno[3,2-b]pyridin-7-yloxy)phenyl)-N-(4-fluorophenyl)cyclopropane-1,1-dicarboxamide]",< 50 nM
13,"COCCNCCc1ccc(-c2cc3nccc(Oc4ccc(NC(=S)NC(=O)Cc5ccc(F)cc5)cc4F)c3s2)nc1 [Compound 187, N-(3-fluoro-4-(2-(5-(2-(2-methoxyethylamino)ethyl)pyridin-2-yl)thieno[3,2-b]pyridin-7-yloxy)phenylcarbamothioyl)-2-(4-fluorophenyl)acetamide]",< 50 nM
14,COCCN(Cc1cnc(-c2cc3nccc(Oc4ccc(NC(=O)NC5CC5)cc4F)c3s2)n1C)C(=O)NC(C)C [Compound 189],< 50 nM
15,"COCCN(Cc1ccc(-c2cc3nccc(Oc4ccc(NC(=O)NC5CC5)cc4F)c3s2)nc1)C(=O)NC(C)C [Compound 190, 1-((6-(7-(4-cyclopropylaminocarbonylamino-2-fluorophenoxy)-thieno[3,2-b]pyridin-2-yl)pyridin-3-yl)methyl)-3-isopropyl-1-(2-methoxyethyl)urea]",< 50 nM
16,"COCCN(Cc1ccc(-c2cc3nccc(Oc4ccc(NC(=O)NC5CC5)cc4F)c3s2)cc1)C(=O)NC(C)C [Compound 193, 1-(4-(7-(4-cyclopropylaminocarbonylamino-2-fluorophenoxy)thieno-[3,2-b]pyridin-2-yl)benzyl)-3-isopropyl-1-(2-methoxyethyl)urea]",< 50 nM
17,"COCCN(Cc1ccc(-c2cc3nccc(Oc4ccc(NC(=O)NC5CC5)cc4F)c3s2)cc1)C(=O)NC1CCCC1 [Compound 194, 1-(4-(7-(4-cyclopropylaminocarbonylamino-2-fluorophenoxy)thieno-[3,2-b]pyridin-2-yl)benzyl)-3-cyclopentyl-1-(2-methoxyethyl)urea]",< 50 nM
18,"CCNC(=O)N(CCOC)Cc1ccc(-c2cc3nccc(Oc4ccc(NC(=O)NC5CC5)cc4F)c3s2)cc1 [Compound 195, 1-(4-(7-(4-cyclopropylaminocarbonylamino-2-fluorophenoxy)thieno[3,2-b]pyridin-2-yl)benzyl)-3-ethyl-1-(2-methoxyethyl)urea]",< 50 nM
19,"CC(C)NC(=O)Nc1ccc(Oc2ccnc3cc(-c4ccc(CN5CCCOC5=O)cn4)sc23)c(F)c1 [Compound 201, 1-(3-fluoro-4-(2-(5-((2-oxo-1,3-oxazinan-3-yl)methyl)pyridin-2-yl)thieno[3,2-b]pyridin-7-yloxy)phenyl)-3-isopropylurea]",< 50 nM
20,"CC(C)NC(=O)Nc1ccc(Oc2ccnc3cc(-c4ccc(CN5CCCC5=O)cc4)sc23)c(F)c1 [Compound 205, 1-(3-fluoro-4-(2-(4-((2-oxopyrrolidin-1-yl)methyl)phenyl)thieno[3,2-b]pyridin-7-yloxy)phenyl)-3-isopropylurea]",50 to 100 nM
21,"COCCN(Cc1cnc(-c2cc3nccc(Oc4ccc(NC(=O)NC5CC5)cc4F)c3s2)n1C)C(C)=O [Compound 212, N-((2-(7-(4-(3-cyclopropylureido)-2-fluorophenoxy)thieno[3,2-b]pyridin-2-yl)-1-methyl-1H-imidazol-5-yl)methyl)-N-(2-methoxyethyl)acetamide]",< 50 nM
22,"Cn1c(C(=O)NCCN2CCOCC2)cnc1-c1cc2nccc(Oc3ccc(NC(=O)NC4CC4)cc3F)c2s1 [Compound 217, 2-(7-(4-(3-cyclopropylureido)-2-fluorophenoxy)thieno[3,2-b]pyridin-2-yl)-1-methyl-N-(2-morpholinoethyl)-1H-imidazole-5-carboxamide]",< 50 nM
23,"CC(C)NC(=O)Nc1ccc(Oc2ccnc3cc(-c4ncc(C(=O)NCCN5CCOCC5)n4C)sc23)c(F)c1 [Compound 218, 2-(7-(2-fluoro-4-(3-isopropylureido)phenoxy)thieno[3,2-b]pyridin-2-yl)-1-methyl-N-(2-morpholinoethyl)-1H-imidazole-5-carboxamide]",< 50 nM
24,"Cn1c(C(=O)N2CCCC2)cnc1-c1cc2nccc(Oc3ccc(NC(=O)NC4CC4)cc3F)c2s1 [Compound 222, 1-cyclopropyl-3-(3-fluoro-4-(2-(1-methyl-5-(pyrrolidine-1-carbonyl)-1H-imidazol-2-yl)thieno[3,2-b]pyridin-7-yloxy)phenyl)urea]",< 50 nM
25,"CC(C)NC(=O)Nc1ccc(Oc2ccnc3cc(-c4ncc(C(=O)N5CCCC5)n4C)sc23)c(F)c1 [Compound 223, 1-(3-fluoro-4-(2-(1-methyl-5-(pyrrolidine-1-carbonyl)-1H-imidazol-2-yl)thieno[3,2-b]pyridin-7-yloxy)phenyl)-3-isopropylurea]",100 to 250 nM
26,Cn1c(C(=O)NCCCN2CCOCC2)cnc1-c1cc2nccc(Oc3ccc(NC(=O)NC4CC4)cc3F)c2s1 [Compound 224],< 50 nM
27,"O=C(Nc1ccc(Oc2ccnc3cc(-c4ccc(C(=O)O)cn4)sc23)c(F)c1)NC1CC1 [Compound 225, 6-(7-(4-(3-Cyclopropylureido)-2-fluorophenoxy)thieno[3,2-b]pyridin-2-yl)nicotinic acid]",< 50 nM
28,"CN(C)[C@@H]1CCN(C(=O)c2ccc(-c3cc4nccc(Oc5ccc(NC(=O)NC6CC6)cc5F)c4s3)nc2)C1 [Compound 227, (R)-1-cyclopropyl-3-(4-(2-(5-(3-(dimethylamino)pyrrolidine-1-carbonyl)pyridin-2-yl)thieno[3,2-b]pyridin-7-yloxy)-3-fluorophenyl)urea]",< 50 nM
29,"CN1CCN(C(=O)c2ccc(-c3cc4nccc(Oc5ccc(NC(=O)NC6CC6)cc5F)c4s3)nc2)CC1 [Compound 228, 1-cyclopropyl-3-(3-fluoro-4-(2-(5-(4-methylpiperazine-1-carbonyl)pyridin-2-yl)thieno[3,2-b]pyridin-7-yloxy)phenyl)urea]",< 50 nM
30,"COCCOCCOCCOCCNC(=O)c1ccc(-c2cc3nccc(Oc4ccc(NC(=O)NC5CC5)cc4F)c3s2)nc1 [Compound 229, 6-(7-(4-(3-cyclopropylureido)-2-fluorophenoxy)thieno[3,2-b]pyridin-2-yl)-N-(2,5,8,11-tetraoxatridecan-13-yl)nicotinamide]",< 50 nM
